{"source": "paper PMC3731320", "about": "“Identification of Benzimidazole Diamides as Selective Inhibitors of the Nucleotide-Binding Oligomerization Domain 2 (NOD2) Signaling Pathway” (PLoS ONE, 2013)", "type_in_all_cases": "cell-based", "key": {"NOD2": {"tested_on": "NOD2", "assay": "MDP-stimulated cytokine release in primary human monocytes", "settings": "MDP 0.1 μg/mL", "description": "(§1) […] The concentration of IL-1β, IL-6 and TNFα in medium samples collected after 24-hour treatment was determined using the MS6000 human pro-inflammatory-4 II tissue culture kit (Meso Scale Discovery). The IL-8 concentration was determined by HTRF."}, "TLR2": {"tested_on": "TLR2", "assay": "Pam2CSK4-stimulated IL-8 release in primary human monocytes", "settings": "Pam2CSK4 100 pg/mL; GSK717 0.5–16 μM, RIP2 inhibitor 0.05–1.6 μM"}, "NOD2 and TLR2": {"tested_on": "NOD2 and TLR2", "assay": "IL-8 release in primary human monocytes co-stimulated with MDP and Pam2CSK4 (NOD2-TLR2 synergy)", "settings": "MDP 0.1 μg/mL + Pam2CSK4 100 pg/mL; listed as GSK717", "description": "as §1"}}, "note": "Entries after “also recorded” stand apart in the source; their conditions may differ."}
{"smiles": "CN(CCc1nc2ccccc2n1CC(=O)Nc1ccc2c(c1)CCC2)C(=O)c1ccccc1", "note": "[Compound 29, N-(2-(1-(2-((2,3-dihydro-1H-inden-5-yl)amino)-2-oxoethyl)-1H-benzo[d]imidazol-2-yl)ethyl)-N-methylbenzamide]", "values": [{"measurement": "effect on MDP-stimulated IL-8 release in monocytes", "setting": "NOD2; GSK717 0.5–16 μM, RIP2 inhibitor 0.05–1.6 μM", "value": "prevented"}, {"measurement": "effect on MDP-stimulated cytokine secretion, single concentration", "setting": "NOD2; primary human monocytes, compound 5 μM, IL-1β, IL-6, IL-8, TNFα, 24 hours", "value": "abrogated the stimulatory effect of MDP"}, {"measurement": "effect on Pam2CSK4-stimulated IL-8 release in monocytes", "setting": "TLR2", "value": "but not Pam2CSK4-stimulated IL-8 release"}, {"measurement": "effect on synergistic IL-8 response of co-stimulated monocytes", "setting": "NOD2 and TLR2", "value": "blocks synergy between NOD2 and TLR2; also recorded: abolished the clear synergistic IL-8 response"}]}
